Data set [1] concerns hyperlipidemia animal model of B6-hPCSK9 transgenic mice. Nature of the data set: In vivo pharmacodynamics in hyperlipidemia animal model of B6-hPCSK9 transgenic mice. To be noted: PO administration, 10 mpk, Day 14, high-fat feed. More on the design: species or system B6-hPCSK9 transgenic C57 mice. The protocol: The compounds of the present disclosure were evaluated for in vivo pharmacodynamics in a hyperlipidemia animal model of B6-hPCSK9 transgenic mice.
B6-hPCSK9 transgenic C57 mice, 6-8 weeks old, male, purchased from Jiangsu GemPharmatech Co., Ltd.
After delivery to a barrier system, the animals were given one week for acclimatization and began to feed on the high-fat feed. The body weight and feed weight were weighed once a week, and the body weight and food intake thereof were recorded.
a. The animals were grouped by a random grouping method.
c. According to the grouping results, administration with the test drug was started (mode of administration: oral administration; administration volume: 10 mL/kg; frequency of administration: once/day or single administration; administration cycle: 21 days; vehicle: 10% Solutol HS 15/90% Saline).
d. After the test drug was administered, the body weight and feed weight were weighed twice a week and blood was taken once a week.
e. The data was processed with software such as Excel. […] PCSK9 in plasma was detected by ELISA.

Data set [2] has as its system LDLR level in HepG2 cells. In words: Effect on the LDLR level in HepG2 cells (ELISA). It is filed as cell-based, human. More on the design: concentration or dose not given beside the values. To be noted: 48 hours incubation, LDLR ELISA of lysate. The protocol: To detect the effect of the compounds on the LDLR protein level.
Envision (PE-Cisbio: 2105-0020), centrifuge (Eppendorf: 5810R), water purifier (THERMO: Pacific T II+Micropure), plate washer (Thermo: […] VERSA), and microplate shaker (Thermo: 88882006)
• 1) HepG2 cell strain was cultured in the complete culture medium at 37° C., 5% CO2 to 70-90% confluence. • 2) The cells were digested and resuspended in the experimental culture medium, inoculation was performed at 25,000 cells/well/200 μL in a 96-well cell culture plate, and the cells were cultured at 37° C., 5% CO2 for 20-24 hours. • 3) The culture medium was removed from the cell culture plate, and the cell culture plate was washed once by adding 200 μl of the experimental culture medium to each well. • 4) Preparation of positive control compound and compound to be tested: the positive control compound and the compound to be tested were diluted on the compound plate. • 5) The diluted compound was added to the cell culture plate at 250 μL per well and incubated at 37° C. and 5% CO2 for 48 hours. • 6) The cell culture medium was removed, the cells were washed with PBS, and 50 μL of the cell lysis buffer and the protein inhibitor were added. • 7) After centrifugation, the lysate was removed and the sample was stored for later use. • 8) Preparation of standard curve: corresponding volumes of Dilution buffer were successively added to respective standard tubes, and the standard was diluted in series by taking the corresponding volume from the original tube or the last concentration tube. • 9) Preparation of washing liquid: 10× Wash buffer was diluted into 1× with Milli-Q for later use. • 10) According to the standard curve wells and sample wells set according to a plate map, 80 μL/well of the corresponding standards and samples were added to the wells, with 2 replicate wells. A well in which no standard was added was used as a background value well. A self-adhesive seal was applied, the plate was placed on a plate shaker at room temperature, gently shaken, uniformly mixed, and incubated for 2 hours. • 11) The plate was placed on the plate washer, the washing liquid was set to 350 μL per well, and the plate was washed 4 times repeatedly. • 12) 200 μL of Human LDLR conjugate was added, a self-adhesive seal was applied, and the plate was placed on the plate shaker, well mixed uniformly, and incubated for 2 hours. • 13) The plate was placed on the plate washer, the washing liquid was set to 350 μL per well, and the plate was washed 4 times repeatedly. • 14) 200 μL/well of Substrate solution was added, and the plate was placed in the dark, applied with a self-adhesive seal, placed on the plate shaker, well mixed uniformly, and incubated for 20 minutes. • 15) 50 μL/well of Stop solution was added and mixed uniformly over 20 min. • 16) The optical density (OD) value in each well was measured in sequence at a wavelength of 450 nm by the microplate reader.
After the OD values were read by the microplate reader, the OD value of the 0-concentration standard in the standard group was subtracted from the OD values of the standards, control group, and samples to obtain the actual OD values for these wells. A standard curve was plotted with Graphpad and the concentration of the sample was calculated. If the dilution was performed during the sample detection, the calculated sample concentration was necessarily multiplied by the corresponding dilution ratio in the final calculation, which was the actual concentration of the sample. Concentration increase %=(actual concentration in control-actual concentration in sample)/actual concentration in control*100.

The nature of data set [3]: Pharmacokinetic determination in mice (plasma). The format is in vivo, C57BL/6J mice. As to conditions: C57 mice, PO administration, 5 mpk; for AUC(0-inf) / half-life / MRT / Cmax: male, C57BL/6J, mouse, 5 mg/kg; for AUC(0-inf): read-out: Area under the curve AUC0-∞; for half-life: read-out: Half-life t1/2 (converted); for MRT: read-out: Mean residence time MRT; for Cmax: read-out: Plasma concentration Cmax. The procedure, abridged: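 Male C57BL/6J mice (n=3 per route), fasted overnight, got 5 mg/kg PO in 10% Solutol HS15 or 1 mg/kg IV in 5% DMSO/10% Solutol HS15/85% PBS. Orbital blood was sampled at 0.083 (IV only), 0.25, 0.5, 1, 2, 4, 8 and 24 h. EDTA-K2 plasma was quantified by LC-MS/MS for PK parameters.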

The term MRT denotes the average time that molecules of a dose stay in the body.

Regarding `O=C1c2ncccc2CN1c1ccc(N[C@H]2CC[C@H](Nc3ncc(C(F)(F)F)nn3)C2)nc1` [Example 144], the “LDL-C change, Day 14” value in data set [1] is given as −30.39%. In addition, the LDLR expression level in data set [2] came to 117%. Moreover, in data set [3], the Time to peak tmax amounted to 1 h, the AUC(0-inf) amounted to 15000 ng·h/mL, the half-life was 2.8 h and the MRT is 4 h. In addition, the Cmax in data set [3] stood at 2820 ng/mL.

For `Cc1cc2c(cn1)CN(c1ccc(N[C@H]3CC[C@H](Nc4ncc(C(F)(F)F)nn4)C3)nc1)C2=O` [Example 148, 6-Methyl-2-(6-(((1S,3S)-3-((6-(trifluoromethyl)-1,2,4-triazin-3-yl)amino)cyclopentyl)amino)pyridin-3-yl)-2,3-dihydro-1H-pyrrolo[3,4-c]pyridin-1-one], the “LDL-C change, Day 14” value in data set [1] is given as −24.61%. In addition, the LDLR expression level in data set [2] came to 121%. In data set [3], the Time to peak tmax is 1 h, the AUC(0-inf) came out at 59800 ng·h/mL, the half-life was 3.4 h and the MRT worked out at 4.3 h. Further, in data set [3], the Cmax was determined as 13500 ng/mL.

`O=C1c2c(cccc2C(F)(F)F)CN1c1ccc(N[C@H]2CC[C@H](Nc3ncc(C(F)(F)F)nn3)C2)nc1` [Example 157, 7-(Trifluoromethyl)-2-(6-(((1S,3S)-3-((6-(trifluoromethyl)-1,2,4-triazin-3-yl)amino)cyclopentyl)amino)pyridin-3-yl) isoindolin-1-one]: in data set [1], the “LDL-C change, Day 14” value is given as −28.99%. The LDLR expression level in data set [2] is reported as 129%. Besides, in data set [3], the Time to peak tmax is 0.5 h, the AUC(0-inf) is 6200 ng·h/mL, the half-life was 3.1 h and the MRT worked out at 2.6 h. Moreover, in data set [3], the Cmax was 2190 ng/mL.

The values are drawn from patent US20250326722A1 (SHANGHAI HANSOH BIOMEDICAL CO., LTD., priority 2022, published 2025).
